Assay results from patent publication US5223517A, “Heterocyclically substituted cycloalkano[b]-indolesulphonamides” (Bayer Aktiengesellschaft, priority 1990, dated 1993).
Counter-ions that a name gives are not always drawn.

target: T1, thromboxane synthase (Homo sapiens, UniProt P24557); test: Measurement of the thromboxane synthase in washed human platelets; type: cell-based; conditions: 3H-arachidonic acid, 37° C., 10 min, read-out: IC50 (50% inhibition of thromboxane formation compared to the control)
T1 construct: 1 ml of the platelet suspension and 0.01 ml of the test preparation in 10% DMSO are incubated at 37° C. for 2 min; endogenous in cells; host or cells: washed human platelets from blood of healthy donors
T1 sequence (P24557 1-533): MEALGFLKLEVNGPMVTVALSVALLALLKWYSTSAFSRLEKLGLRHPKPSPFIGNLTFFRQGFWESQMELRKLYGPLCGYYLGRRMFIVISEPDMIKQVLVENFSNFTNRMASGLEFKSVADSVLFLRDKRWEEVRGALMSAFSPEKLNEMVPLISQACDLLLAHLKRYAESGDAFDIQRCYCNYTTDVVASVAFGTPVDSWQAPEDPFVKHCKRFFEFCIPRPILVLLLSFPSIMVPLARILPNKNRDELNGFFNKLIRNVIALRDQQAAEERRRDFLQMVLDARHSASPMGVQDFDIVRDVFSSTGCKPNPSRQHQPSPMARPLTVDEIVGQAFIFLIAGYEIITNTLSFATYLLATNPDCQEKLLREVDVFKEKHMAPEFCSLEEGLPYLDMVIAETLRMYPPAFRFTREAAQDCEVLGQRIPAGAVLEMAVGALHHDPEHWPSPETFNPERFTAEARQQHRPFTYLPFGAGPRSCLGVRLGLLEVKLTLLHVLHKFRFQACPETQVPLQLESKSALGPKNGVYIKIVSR

| IC50 | SMILES |
| --- | --- |
| 1000 nM | O=C(O)CCn1c2c(c3cc(CCc4cccnc4)ccc31)CC(NS(=O)(=O)c1ccc(F)cc1)CC2 (stereo not shown) [Example 17] |
| 100 nM | O=C(O)CCn1c2c(c3ccc(-c4cccnc4)cc31)CC(NS(=O)(=O)c1ccc(F)cc1)CC2 (stereo not shown) [Example 24] |
| 200 nM | O=C(O)CCn1c2c(c3cc(Cc4cccnc4)ccc31)CC(NS(=O)(=O)c1ccc(F)cc1)CC2 (stereo not shown) [Example 11, 9-(2-Carboxyethyl)-3-(4-fluorophenylsulphonamido)-6-(3-pyridyl-methyl)-1,2,3,4-tetrahydro-carbazole hydrochloride] |

test system: platelet aggregation (platelet-rich citrate plasma, collagen); test: platelet aggregation-inhibiting action (TAI), collagen-induced, platelet-rich plasma, turbidometric method; type: cell-based; conditions: Homo sapiens, 0.1 h, range of the minimum effective concentration, PRP, 37° C., result after 6 minutes, read-out: TAI threshold concentration
From the text: Blood from healthy subjects of both sexes was used for the determination of the platelet aggregation-inhibiting action. As an anticoagulant, one part of 3.8% strength aqueous sodium citrate solution was admixed to 9 parts of blood. Platelet-rich citrate plasma (PRP)^1 is obtained from this blood by means of centrifugation (Jurgens/Beller, Klinische Methoden der Blutgerinnungsanalyse (Clinical Methods of Blood Coagulation Analysis); Thieme Verlag, Stuttgart, 1959).
For these investigations, 0.8 ml of PRP and 0.1 ml of the active compound solution were preincubated in a water bath at 37° C. The platelet aggregation was then determined by the turbidometric method (Born, G. V. R., J. Physiol. (London), 162, 67, 1962) in an aggregometer at 37° C. (Therapeutische Berichte 47, 80-86, 1975). To this end, 0.1 ml of collagen, an aggregation-inducing agent, was added to the preincubated sample. The change in the optical density in the sample of PRP^1 was recorded during a period of 6 minutes and the results was determined after 6 minutes. To do this, the percentage inhibition is calculated compared to the control.
The range of the minimum effective concentration is given as the threshold concentration.

| SMILES | minimal effective concentration |
| --- | --- |
| O=C(O)CCn1c2c(c3cc(CCc4cccnc4)ccc31)CC(NS(=O)(=O)c1ccc(F)cc1)CC2 (stereo not shown) [Example 17] | 0.03 to 0.1 µg/mL |
| O=C(O)CCn1c2c(c3cc(OCc4ccccn4)ccc31)CC(N(Cc1ccccn1)S(=O)(=O)c1ccc(F)cc1)CC2 (stereo not shown) [Example 25] | 0.03 to 0.1 µg/mL |
| O=C(O)CCn1c2c(c3cc(C(=O)CCc4cccnc4)ccc31)CC(NS(=O)(=O)c1ccc(F)cc1)CC2 (stereo not shown) [Example 20] | 0.03 to 0.1 µg/mL |
| O=C(O)CCn1c2c(c3c(Cc4cccnc4)cccc31)CC(NS(=O)(=O)c1ccc(F)cc1)CC2 (stereo not shown) [Example 18] | 0.3 to 1 µg/mL |
